According to patent publication US6833456B2, “Indolyl-urea derivatives of thienopyridines useful as antiangiogenic agents, and methods for their use” (Agouron Pharmaceuticals, Inc., priority 2002, dated 2004):
pIC50, pKi: −log10 of the molar value. Values joined by “and” are separate entries in the source; they are usually repeats but may differ in a detail not shown here. Identical values can stand only once.

Experiments:
[1] = target: T1, unphosphorylated VEGF-R2Δ50 (FLVK) (Homo sapiens, UniProt P35968, DEL940-989/E990V); assay: VEGF-R2 coupled spectrophotometric assay, unphosphorylated construct (FLVK); format: biochemical; details: for inhibition at 0.05 µM: percent inhibition at 50 nM
T1 construct: VEGF-R2Δ50 contains residues 806-939 and 990-1171; made in house; host or cells: baculovirus/insect cell system
T1 sequence (P35968 with tags, fused parts or gaps DEL940-989/E990V limits assumed): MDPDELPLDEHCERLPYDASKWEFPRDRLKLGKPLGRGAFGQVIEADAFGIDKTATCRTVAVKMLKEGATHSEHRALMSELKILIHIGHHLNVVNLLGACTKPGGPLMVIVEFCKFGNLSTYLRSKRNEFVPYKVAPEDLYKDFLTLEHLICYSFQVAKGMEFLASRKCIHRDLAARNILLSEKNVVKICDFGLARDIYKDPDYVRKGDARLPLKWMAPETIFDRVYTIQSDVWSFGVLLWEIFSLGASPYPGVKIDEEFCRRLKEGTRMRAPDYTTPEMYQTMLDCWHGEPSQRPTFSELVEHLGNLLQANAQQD
Procedure, shortened: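 Human VEGF-R2Δ50 cytosolic kinase (residues 806-939/990-1171, E990V), baculovirus-expressed, unphosphorylated form. PK/LDH-coupled NADH oxidation at 340 nm with 20 mM poly(E4Y1), 3 mM ATP, 60 mM MgCl2, 2 mM MnCl2, 200 mM HEPES pH 7.5, 5-40 nM enzyme; Ki fitted by Morrison equation.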

[2] = target: T2, KDR (VEGFR2) (Homo sapiens, UniProt P35968); assay: KDR (VEGFR2) phosphorylation in PAE-KDR cells assay; format: cell-based; details: PAE cells overexpressing human KDR, VEGF stimulated; read-out: PAE KDR autophos IC50
T2 construct: expressed in transfected cells; host or cells: porcine aorta endothelial (PAE) cells
T2 sequence (P35968 20-1356): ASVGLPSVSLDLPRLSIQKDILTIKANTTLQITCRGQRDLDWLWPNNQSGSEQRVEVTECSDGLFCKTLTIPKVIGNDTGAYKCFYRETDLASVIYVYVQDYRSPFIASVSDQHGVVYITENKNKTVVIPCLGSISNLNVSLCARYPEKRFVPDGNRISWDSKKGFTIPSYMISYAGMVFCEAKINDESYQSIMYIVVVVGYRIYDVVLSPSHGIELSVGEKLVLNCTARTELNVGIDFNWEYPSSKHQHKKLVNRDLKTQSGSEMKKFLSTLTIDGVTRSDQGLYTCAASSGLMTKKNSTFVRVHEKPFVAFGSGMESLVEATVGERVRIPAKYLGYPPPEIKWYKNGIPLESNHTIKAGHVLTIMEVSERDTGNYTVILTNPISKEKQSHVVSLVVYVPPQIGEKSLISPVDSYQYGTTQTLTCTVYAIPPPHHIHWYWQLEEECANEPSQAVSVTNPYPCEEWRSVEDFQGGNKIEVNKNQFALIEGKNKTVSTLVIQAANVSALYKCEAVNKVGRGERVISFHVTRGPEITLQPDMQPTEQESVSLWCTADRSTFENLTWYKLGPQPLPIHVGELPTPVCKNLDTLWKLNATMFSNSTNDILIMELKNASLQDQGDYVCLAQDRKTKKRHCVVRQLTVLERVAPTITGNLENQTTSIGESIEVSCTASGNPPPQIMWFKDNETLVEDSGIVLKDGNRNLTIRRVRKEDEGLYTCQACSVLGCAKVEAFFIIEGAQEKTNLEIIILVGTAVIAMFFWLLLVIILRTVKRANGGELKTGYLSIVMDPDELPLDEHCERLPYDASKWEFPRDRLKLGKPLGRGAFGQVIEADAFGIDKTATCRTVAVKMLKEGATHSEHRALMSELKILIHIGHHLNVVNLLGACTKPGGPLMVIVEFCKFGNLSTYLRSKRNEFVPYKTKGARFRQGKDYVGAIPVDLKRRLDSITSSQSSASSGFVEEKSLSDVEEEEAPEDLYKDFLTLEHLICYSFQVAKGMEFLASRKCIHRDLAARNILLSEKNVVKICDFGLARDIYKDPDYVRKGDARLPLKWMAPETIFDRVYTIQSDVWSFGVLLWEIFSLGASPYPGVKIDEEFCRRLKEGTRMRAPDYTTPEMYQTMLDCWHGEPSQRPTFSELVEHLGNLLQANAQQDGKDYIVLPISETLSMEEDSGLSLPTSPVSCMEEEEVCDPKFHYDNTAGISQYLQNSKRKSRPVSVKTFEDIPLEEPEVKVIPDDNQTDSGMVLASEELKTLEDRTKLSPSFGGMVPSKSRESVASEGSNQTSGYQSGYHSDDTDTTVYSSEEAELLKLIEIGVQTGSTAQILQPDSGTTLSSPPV
Protocol: This assay determines the ability of a test compound to inhibit the autophosphorylation of KDR in porcine aorta endothelial (PAE)-KDR cells. PAE cells that overexpress human KDR were used in this assay. The cells were cultured in Ham's F12 media supplemented with 10% fetal bovine serum (FBS) and 400 ug/mL G418. Thirty thousands cells were seeded into each well of a 96-well plate in 75 μL of growth media and allowed to attach for 6 hours at 37° C. Cells were then exposed to the starvation media (Ham's F12 media supplemented with 0.1% FBS) for 16 hours. After the starvation period was over, 10 μL of test agent in 5% DMSO in starvation media were added to the test wells and 10 μL of the vehicle (5% DMSO in starvation media) were added into the control wells. The final DMSO concentration in each well was 0.5%. Plates were incubated at 37° C. for 1 hour and the cells were then stimulated with 500 ng/ml VEGF (commercially available from R & D System) in the presence of 2 mM Na3VO4 for 8 minutes. The cells were washed once with 1 mm Na3VO4 in HBSS and lysed by adding 50 μL per well of lysis buffer. One hundred μL of dilution buffer were then added to each well and the diluted cell lysate was transferred to a 96-well goat ant-rabbit coated plate (commercially available from Pierce) which was pre-coated with Rabbit anti Human Anti-flk-1 C-20 antibody (commercially available from Santa Cruz). The plates were incubated at room temperature for 2 hours and washed seven times with 1% Tween 20 in PBS. HRP-PY20 (commercially available from Santa Cruz) was diluted and added to the plate for a 30-minute incubation. Plates were then washed again and TMB peroxidase substrate (commercially available from Kirkegaard & Perry) was added for a 10-minute incubation. One hundred μL of 0.09 N H2SO4 was added to each well of the 96-well plates to stop the reaction. Phosphorylation status was assessed by spectrophotometer reading at 450 nm. IC50 values were calculated by curve fitting using a four-parameter analysis.

[3] = target: T3, PDGFRβ (Homo sapiens, UniProt P09619); assay: PAE-PDGFRβ phosphorylation in PAE-PDGFRB cells assay; format: cell-based; details: PAE cells overexpressing human PDGFRβ, PDGF-BB stimulated; read-out: PAE PDGFR autophos IC50
T3 construct: expressed in transfected cells; host or cells: porcine aorta endothelial (PAE) cells
T3 sequence (P09619 33-1106): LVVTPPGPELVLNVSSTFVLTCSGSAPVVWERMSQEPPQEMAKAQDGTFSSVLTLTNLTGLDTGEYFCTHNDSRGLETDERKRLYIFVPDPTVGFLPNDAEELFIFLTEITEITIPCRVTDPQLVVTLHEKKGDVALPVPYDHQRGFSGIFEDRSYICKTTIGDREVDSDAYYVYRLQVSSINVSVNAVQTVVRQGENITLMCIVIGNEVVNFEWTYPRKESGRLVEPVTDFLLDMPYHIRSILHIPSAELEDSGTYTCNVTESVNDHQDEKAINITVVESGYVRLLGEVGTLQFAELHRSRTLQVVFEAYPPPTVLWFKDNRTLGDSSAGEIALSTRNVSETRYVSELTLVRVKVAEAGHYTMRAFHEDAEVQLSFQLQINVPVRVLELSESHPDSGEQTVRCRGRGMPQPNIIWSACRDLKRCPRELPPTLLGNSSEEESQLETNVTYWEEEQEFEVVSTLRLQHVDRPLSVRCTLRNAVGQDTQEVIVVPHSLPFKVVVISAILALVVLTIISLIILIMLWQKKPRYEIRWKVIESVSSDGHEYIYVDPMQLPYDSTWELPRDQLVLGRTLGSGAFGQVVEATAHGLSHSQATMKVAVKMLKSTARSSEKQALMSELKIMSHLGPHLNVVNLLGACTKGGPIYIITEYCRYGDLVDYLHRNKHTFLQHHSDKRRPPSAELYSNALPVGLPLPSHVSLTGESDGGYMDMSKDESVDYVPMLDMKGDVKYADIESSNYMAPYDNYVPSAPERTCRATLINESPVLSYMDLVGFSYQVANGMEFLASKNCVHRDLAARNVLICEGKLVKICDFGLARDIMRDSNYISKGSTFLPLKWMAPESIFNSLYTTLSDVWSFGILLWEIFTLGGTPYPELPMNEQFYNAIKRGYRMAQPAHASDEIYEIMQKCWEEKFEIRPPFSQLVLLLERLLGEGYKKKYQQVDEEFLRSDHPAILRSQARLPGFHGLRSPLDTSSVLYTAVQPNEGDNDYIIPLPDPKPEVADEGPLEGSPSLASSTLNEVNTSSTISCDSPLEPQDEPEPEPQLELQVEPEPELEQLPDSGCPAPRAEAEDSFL
Procedure, shortened: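 PAE cells overexpressing human PDGFRβ, serum-starved 16 h (0.1% FBS), compound 1 h at 37° C (0.5% DMSO), then 1 μg/mL PDGF-BB with 2 mM Na3VO4 for 8 min. Receptor captured by anti-PDGFRβ, phosphotyrosine detected by HRP-PY20/TMB at 450 nm; IC50 by four-parameter fit.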

[4] = test system: HUVEC; assay: bFGF HUVEC proliferation; format: cell-based, human; details: Homo sapiens, HUVEC, bFGF stimulated HUVEC
[5] = test system: human umbilical vein endothelial cells (HUVEC); assay: HUVEC+VEGF proliferation assay; format: cell-based; details: Homo sapiens, HUVEC, 72 h, VEGF 6 ng/mL, MTT
Procedure, shortened: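 HUVEC (passage 3-4), serum-starved 24 h in F12K + 1% FBS, were pre-treated with compound for 1 h (0.1% DMSO final). They were then stimulated with VEGF at 6 ng/mL final. Proliferation was measured after 72 h by MTT dye reduction (4 h), with absorbance read at 595 nm.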

[6] = Mouse PK assay; format: in vivo, B6 female mice; details: po; for AUC / Cmax: female, B6, mouse, plasma, 50 mg/kg; for Cmax: p.o., read-out: Mouse Cmax, po ng-h/mL
Procedure, shortened: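 Plasma levels were measured by HPLC with UV detection after acetonitrile precipitation, using extracted standards, in blood taken up to 4 h (0.5, 1, 2, 4 h) post-dose. Dosing: 50 mg/kg orally or intraperitoneally to two groups of four female B6 mice, vehicle PEG 400:acidified H2O 30:70 suspension.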

[7] = Human liver microsome (HLM) assay; format: in vitro ADME; details: human liver microsomes
Protocol: Compound metabolism in human liver microsomes was measured by LC-MS analytical assay procedures as follows. First, human liver microsomes (HLM) were thawed and diluted to 5 mg/mL with cold 100 mM potassium phosphate (KPO4) buffer. Appropriate amounts of KPO4 buffer, NADPH-regenerating solution (containing B-NADP, glucose-6-phosphate, glucose-6-phosphate dehydrogenase, and MgCl2), and HLM were preincubated in 13×100 mm glass tubes at 37° C. for 10 min. (3 tubes per test compound—triplicate). Test compound (5 μM final) was added to each tube to initiate reaction and was mixed by gentle vortexing, followed by incubation at 37° C. […] Samples were centrifuged at 4000 rpm for 20 min. to precipitate proteins and salt (Beckman Allegra 6KR, S/N ALK98DO6, #634). Supernatant was transferred to new 12×75 mm glass tubes and evaporated by Speed-Vac centrifugal vacuum evaporator. Samples were reconstituted in 200 μL 0.1% formic acid/acetonitrile (90/10) and vortexed vigorously to dissolve. The samples were then transferred to separate polypropylene microcentrifuge tubes and centrifuged at 14000×g for 10 min. (Fisher Micro 14, S/N M0017580). […]
The combined compound samples were injected into the LC-MS system, composed of a Hewlett-Packard HP1100 diode array HPLC and a Micromass Quattro II triple quadruple mass spectrometer operating in positive electrospray SIR mode (programmed to scan specifically for the molecular ion of each test compound). Each test compound peak was integrated at each timepoint. […]

pKi [1] | inhibition at 0.05 µM [1] [%] | pIC50 [2] | pIC50 [3] | AUC [6] [ng·h/mL] | Cmax [6] [ng/mL] | Mouse Cmin, po [6] [ng/mL] | % remain (HLM-NADPH, 0.5 h) [7] [%] | % remain (HLM-UDPGA, 0.5 h) [7] [%] | Structure (SMILES) | pIC50 [4] | pIC50 [5]
9.30 | 98 | 9.30 | 7.88 | – | – | – | – | – | COC[C@@H]1CCCN1C(=O)c1cc2nccc(Oc3ccc4c(cc(C)n4C(=O)NC4CC4)c3F)c2s1 [Example 5b] | 7.87 | –
10.00 | 96 | 9.24 | 8.00 | – | – | – | – | – | CO[C@@H]1CCN(C(=O)c2cc3nccc(Oc4ccc5c(c4)cc(C)n5C(=O)NC4CC4)c3s2)C1 [Example 4k, 5-[2-(3R-Methoxy-pyrrolidine-1-carbonyl)-thieno[3,2-b]pyridin-7-yloxy]-2-methyl-indole-1-carboxylic acid cyclopropylamide] | 8.24 | –
9.01 | 81 | – | 6.67 | – | – | – | – | – | CNC(=O)n1c(C)cc2cc(Oc3ccnc4cc(C(=O)N5CC(F)(F)C[C@H]5CO)sc34)ccc21 [Example 3p, 5-[2-(4,4-Difluoro-2-hydroxymethyl-pyrrolidine-1-carbonyl)-thieno[3,2-b]pyridin-7-yloxy]-2-methyl-indole-1-carboxylic acid methyl-amide] | 6.64 | 9.48
9.30 | 88 | – | 7.12 | – | – | – | – | – | CNC(=O)n1c(C)cc2cc(Oc3ccnc4cc(C(=O)N(C)CCO)sc34)ccc21 [Example 3n, 7-(2-Methyl-1-methylcarbamoyl-1H-indol-5-yloxy)-thieno[3,2-b]pyridine-2-carboxylic acid (2-hydroxy-ethyl)-methyl-amide] | 7.06 | 9.57
9.16 | 93 | – | ~6.00 | – | – | – | – | – | CNC(=O)n1c(C)cc2cc(Nc3ccnc4cc(C(=O)N5CC[C@H](O)C5)sc34)ccc21 [Example 1i, 5-[2-(3S-Hydroxy-pyrrolidine-1-carbonyl)-thieno[3,2-b]pyridin-7-ylamino]-2-methyl-indole-1-carboxylic acid methylamide] | 7.35 | 8.99
– | 2 | – | – | 10600 | 7700 | 163 | 70.9 | 119.4 | Cc1cc2cc(Nc3ccnc4cc(-c5nccn5C)sc34)ccc2n1C(=O)NC(C)C [Example 2f, 5-(2-[1-methyl-1H-imidazol-2-yl]thieno[3,2-b]pyridin-7-ylamino)-2-methylindole-1-carboxylic acid isopropylamide] | – | –
9.64 | 99 | 8.83 | 7.60 | – | – | – | – | – | CCCNC(=O)n1c(C)cc2cc(Oc3ccnc4cc(C(=O)N5CC[C@H](OC)C5)sc34)ccc21 [Example 9d, 5-[2-(3S-Methoxy-pyrrolidine-1-carbonyl)-thieno[3,2-b]pyridin-7-yloxy]-2-methyl-indole-1-carboxylic acid propylamide] | 6.84 | –
9.19 | 99 | – | 7.81 | – | – | – | – | – | CNC(=O)n1c(C)cc2cc(Oc3ccnc4cc(C(=O)N5CC[C@@H](N(C)C)C5)sc34)ccc21 [Example 8g, 5-[(2-{[(3R)-3-(Dimethylamino)pyrrolidin-1-yl]carbonyl}thieno[3,2-b]pyridin-7-yl)oxy]-N,2-dimethyl-1H-indole-1-carboxamide] | 8.05 | 9.82
9.79 | 97 | – | 7.74 and 7.70 | – | – | – | – | – | C#CCNC(=O)n1c(C)cc2cc(Oc3ccnc4cc(C(=O)N5CC[C@H](O)C5)sc34)ccc21 [Example 9j, 5-[2-(3S-Hydroxy-pyrrolidine-1-carbonyl)-thieno[3,2-b]pyridin-7-yloxy]-2-methyl-indole-1-carboxylic acid prop-2-ynylamide] | 7.09 | 9.54
9.84 | 98 | – | 7.89 | – | – | – | – | – | C#CCNC(=O)n1c(C)cc2cc(Oc3ccnc4cc(C(=O)N5CCC[C@@H]5COC)sc34)ccc21 [Example 8p, 5-[2-(2R-Methoxymethyl-pyrrolidine-1-carbonyl)-thieno[3,2-b]pyridin-7-yloxy]-2-methyl-indole-1-carboxylic acid prop-2-ynylamide] | 6.71 | 9.86
8.33 | 64 | 8.92 | – | – | – | – | – | – | CCC(=O)n1c(C)cc2cc(Oc3ccnc4cc(C(=O)N5CC[C@H](OC)C5)sc34)ccc21 [Example 10a, 2-{[(3S)-3-Methoxypyrrolidin-1-yl]carbonyl}-7-[(2-methyl-1-propionyl-1H-indol-5-yl)oxy]thieno[3,2-b]pyridine] | 7.68 | 9.10
9.06 | 88 | – | 7.73 | – | – | – | – | – | Cc1cc2cc(Oc3ccnc4cc(C(=O)N5CC[C@@H](N(C)C)C5)sc34)ccc2n1C(=O)NCCO [Example 8l, 5-[(2-{[(3R)-3-(Dimethylamino)pyrrolidin-1-yl]carbonyl}thieno[3,2-b]pyridin-7-yl)oxy]-N-(2-hydroxyethyl)-2-methyl-1H-indole-1-carboxamide] | 7.20 | 8.82
7.53 | 82 | – | – | 542 | 252 | 6 | 106 | 113.4 | Cc1cc2cc(Nc3ccnc4cc(C(=O)N5CCC[C@H]5CO)sc34)ccc2n1C(=O)NC(C)C [Example 2g, 5-(2-[(S)-2-(hydroxymethyl)pyrrolidine-1-carbonyl]thieno[3,2-b]pyridin-7-ylamino)-2-methylindole-1-carboxylic acid isopropylamide] | – | < 7.48
